Results taken from patent US20180049996A1, “THERAPEUTIC AGENT FOR CHRONIC RESPIRATORY DISEASE AND COMPOSITION FOR INHIBITING CARDIAC FIBROSIS” (NIPPON HYPOX LABORATORIES INCORPORATED, priority 2015, published 2018).

Columns and labels:
ovalbumin-specific IgE = assay: Content of ovalbumin-specific IgE in serum, ovalbumin asthma model; type: in vivo, BALB/c female mice; conditions: HTHQ 20 and 40 mg/kg/day oral; day 25; no significant difference
Experimental: 6 week old BALB/c female mice were purchased and the mice were divided into 5 groups with 5 animals per group shown in Table 3 below after habituation breeding of about 2 weeks.
The test was conducted on the schedule of sensitization, causing diseases and administration of test materials shown in FIG. 12. “IP” in FIG. 12 refers to ovalbumin sensitization treatment by the intraperitoneal administration of ovalbumin/aluminum hydroxide, and “IH” refers to inhalation exposure treatment of ovalbumin, and “PO” refers to the administration of the test materials. Specifically, 200 μL of PBS (pH 7.4) emulsified by the addition of 20 μg ovalbumin and 2 mg aluminum hydroxide as an adjuvant was intraperitoneally administered to all mice in 4 groups except the normal control group (the initial sensitization, day 1 of the test). Then, after 2 weeks (day 14 of the test), the second sensitization treatment was conducted in the same way as the initial sensitization. […]
On day 25 of the test, the total contents of IgE and contents of ovalbumin-specific IgE in serums were measured using blood collected from orbital sinuses of the mice. An ELISA kit for IgE measurement (a product from BioLegend, Inc.) was used for the measurement and the contents were measured at wavelength of 450 nm using a micro plate reader (a product from Bio-Rad Laboratories, Inc.).

[1] = test system: Reactive oxygen species (ROS); assay: Reactive oxygen species (ROS) in BAL cell fluid, COPD model; type: in vivo, C57BL/6N mice; conditions: HTHQ 10 and 20 mg/kg/day oral; tobacco smoke 10 days + LPS; compared to COPD group
Experimental: 6 week old male SPF C57BL/6N mice, 20 to 25 g of body weight, were purchased from CORETEC INC. (South Korea).
The tests were conducted as follows. The mice in the COPD (chronic obstructive pulmonary disease) model group of the test groups were exposed to tobacco smoke for 1 hour per day (8 cigarettes/day) for 10 days and LPS (5 μg/50 μL/mouse) was intranasally administered to the mice on day 8 after the start of the tests. […]
The mice in the test groups were euthanized 72 hours after the LPS administration and the mice in the normal control group were euthanized on day 11 after the start of the tests by intraperitoneal injection of pentobarbital (Hanrimu pharmaceutical, South Korea) at 50 mg/kg and then the bronchi were excised. […] After preparing slide samples from 100 μL of BAL cell fluid using Cytospin (4° C., 1000 rpm×5 min), the cell numbers of inflammatory cells (neutrophil, macrophages) present in the BAL fluid were counted using a Diff-Quik stain kit.
Reactive oxygen species (ROS) amounts in BAL cell fluid were measured. […] Reactive oxygen species (ROS) amounts within cells were measured at an excitation wavelength of 485 nm and a fluorescence wavelength of 530 nm using a fluorescence plate analyzer (a product from PerkinElmer, Inc.).

For `CCCCCCOc1cc(C)c(O)c(C)c1C` [HTHQ, 2,3,5-trimethylhydroquinone-1-hexyl ether], the “amount of ovalbumin-specific IgE in serum” value (ovalbumin-specific IgE) was “a declining trend was seen” and the “amount of reactive oxygen species (ROS) in BAL cell fluid” value [1] was “effectively reduced”.
